# Molecular target: T1, α4β1 integrin (Jurkat T-cell adhesion to IL-1 stimulated endothelial cell monolayers) (Homo sapiens, UniProt P05556+P13612)
# T1 construct: a T-cell line, Jurkat, known to express the α4β1 integrin; host or cells: Jurkat T-cell line
# Experiment: Jurkat-endothelial cell adhesion assay (Jurkat EC)
# Type: cell-based
# Conditions: Jurkat cells on IL-1 stimulated human umbilical vein endothelial cells; read-out: JK/EC (Jurkat EC Assay IC50 value range)
# Procedure: Jurkat-endothelial Cell Adhesion Assay:
# The following assay established the activity of the present compounds in inhibiting β1-mediated cell adhesion in a representative in vitro system. This assay measures the adhesive interactions of a T-cell line, Jurkat, known to express the α4β1 integrin, to endothelial monolayers in the presence of test compounds. The test compounds were added in increasing concentrations to T-cells and then the T-cell compound mixture was added to IL-1 stimulated endothelial cell monolayers. The plates were incubated, washed and the percentage of attached cells was quantitated.
# Human umbilical vein endothelial cells were purchased from Clonetics (San Diego, Calif.) at passage number 2. The cells were grown on 0.5% porcine skin gelatin pre-coated flasks (Sigma, St. Louis Mo.) in EGM-UV media (Clonetics, San Diego, Calif.) supplemented with 10% fetal bovine serum. Cells are refed every 2-3 days reaching confluence by day 4 to 6. […] The endothelial cells are not used following passage 6.
# The T-cell line Jurkat was obtained from American Type Tissue Culture Collection (Rockville, Md.) and the cells were cultured in RPMI containing 10% fetal calf serum. The cells were washed twice in Hank's Balanced Salt Solution (HBSS) and resuspended in Dulbecco's Minimal Eagle's Media (DMEM) containing 2.5 mg/ml Human Serum Albumin (HSA). Jurkat cells (1×10^6 cells/ml) were stained with 10 ng/ml BCECF-AM (Molecular Probes, Eugene, Oreg.)) in HBSS without phenol red. The cells were loaded with BCECF for 60 minutes in the dark at 370C, washed 2 times, and resuspended in DMEM-HSA solution.
# Confluent endothelial monolayers, grown in 96-well tissue culture plates, were stimulated for 4 hr. at 37° C. with 0.1 ng/ml (˜50 U/ml) recombinant IL-1 (Amgen, Thousand Oaks, Calif.). Following this incubation, the monolayers were washed twice with HBSS and 0.1 ml of DMEM−HSA solution was added. Jurkat cells (5×10^5 cells) were combined with the appropriate concentration of the test compound and 0.1 ml of the Jurkat cell-compound mixture was added to the endothelial cell monolayers. Generally, 100, 20, 5 and 1.25 μM compound concentrations were tested. […] The plates were placed on ice for 5 minutes to allow for Jurkat cell settling and the plates were incubated at 37° C. for 20 minutes. Following this incubation, the monolayers were washed twice with PBS containing 1 mM calcium chloride and 1 mM magnesium chloride and the plates were read using a Millipore Cytofluor 2300 (Marlboro, Mass.). Fluorescence in each well was measured as Arbitrary Fluorescence Units and percent adhesion in the absence of compound was adjusted to 100% and the % adhesion in the presence of compound was calculated. Monolayers were also fixed in 3% paraformaldehyde and evaluated microscopically to verify the adhesion. This procedure is a modification of a previously published method (Cardarelli et al., J. Biol. Chem. 269:18668-18673 (1994)).
# T1 sequence (P13612 34-1032): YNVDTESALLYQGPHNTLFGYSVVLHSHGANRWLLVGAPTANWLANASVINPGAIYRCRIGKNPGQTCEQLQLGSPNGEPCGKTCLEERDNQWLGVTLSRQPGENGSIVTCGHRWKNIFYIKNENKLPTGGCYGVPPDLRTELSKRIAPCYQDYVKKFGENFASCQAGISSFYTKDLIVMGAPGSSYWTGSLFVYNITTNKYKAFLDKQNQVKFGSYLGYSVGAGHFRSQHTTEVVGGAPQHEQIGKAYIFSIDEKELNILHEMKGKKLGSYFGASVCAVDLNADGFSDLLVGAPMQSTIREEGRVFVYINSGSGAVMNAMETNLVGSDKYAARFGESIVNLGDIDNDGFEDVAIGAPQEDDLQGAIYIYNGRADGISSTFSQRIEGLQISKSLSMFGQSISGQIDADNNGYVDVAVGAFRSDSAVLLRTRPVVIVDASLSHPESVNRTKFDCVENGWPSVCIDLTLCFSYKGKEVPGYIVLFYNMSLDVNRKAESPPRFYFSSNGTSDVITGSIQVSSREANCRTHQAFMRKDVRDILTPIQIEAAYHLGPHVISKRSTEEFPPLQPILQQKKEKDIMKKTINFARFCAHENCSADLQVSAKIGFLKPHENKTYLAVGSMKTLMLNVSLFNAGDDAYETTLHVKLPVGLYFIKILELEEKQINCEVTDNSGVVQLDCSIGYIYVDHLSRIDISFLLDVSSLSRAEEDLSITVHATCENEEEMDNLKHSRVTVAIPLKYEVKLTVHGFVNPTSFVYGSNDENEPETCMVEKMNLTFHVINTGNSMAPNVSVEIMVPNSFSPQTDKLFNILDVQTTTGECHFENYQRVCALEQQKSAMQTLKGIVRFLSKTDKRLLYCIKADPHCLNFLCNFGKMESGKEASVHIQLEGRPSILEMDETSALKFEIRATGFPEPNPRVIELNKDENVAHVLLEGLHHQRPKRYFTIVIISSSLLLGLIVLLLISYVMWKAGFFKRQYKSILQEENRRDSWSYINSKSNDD
# T1 sequence (P05556 21-798): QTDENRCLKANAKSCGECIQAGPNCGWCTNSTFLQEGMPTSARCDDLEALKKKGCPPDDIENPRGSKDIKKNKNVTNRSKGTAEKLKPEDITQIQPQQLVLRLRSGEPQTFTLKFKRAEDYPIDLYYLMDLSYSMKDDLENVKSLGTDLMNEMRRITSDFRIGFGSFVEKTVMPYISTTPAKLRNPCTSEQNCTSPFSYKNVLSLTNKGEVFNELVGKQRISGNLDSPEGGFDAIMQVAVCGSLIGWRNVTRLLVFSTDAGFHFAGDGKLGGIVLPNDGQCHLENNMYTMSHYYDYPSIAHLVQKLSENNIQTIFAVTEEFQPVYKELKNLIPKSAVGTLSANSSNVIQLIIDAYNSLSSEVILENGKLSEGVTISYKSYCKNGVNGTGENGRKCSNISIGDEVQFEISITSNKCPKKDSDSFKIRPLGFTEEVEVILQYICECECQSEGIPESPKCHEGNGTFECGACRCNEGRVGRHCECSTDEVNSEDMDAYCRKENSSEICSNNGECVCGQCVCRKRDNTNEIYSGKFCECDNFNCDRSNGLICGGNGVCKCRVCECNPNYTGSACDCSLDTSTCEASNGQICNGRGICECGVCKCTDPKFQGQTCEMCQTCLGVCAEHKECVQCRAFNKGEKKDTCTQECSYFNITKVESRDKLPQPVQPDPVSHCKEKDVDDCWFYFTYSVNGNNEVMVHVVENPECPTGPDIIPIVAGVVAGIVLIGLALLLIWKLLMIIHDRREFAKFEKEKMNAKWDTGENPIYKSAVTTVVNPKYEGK
row,IC50 [nM],SMILES
1,≥ 1000,COc1ccc(C(=O)N2CCCC[C@H]2C(=O)N[C@@H](Cc2ccc(NC(=O)c3c(Cl)cccc3Cl)cc2)C(=O)O)cc1OC [Example 180]
2,≥ 1000,O=C(O)c1ccc2cc(C(=O)N3CCCC[C@H]3C(=O)N[C@@H](Cc3ccc(NC(=O)c4c(Cl)cccc4Cl)cc3)C(=O)O)ccc2c1 [Example 183]
3,≥ 1000,O=C(O)CNC(=O)N1CCCC(C(=O)N[C@@H](Cc2ccc(NC(=O)c3c(Cl)cccc3Cl)cc2)C(=O)O)C1 (stereo partly drawn) [Example 202]
4,250 to 1000,O=C(O)c1cccc(C(=O)N2CCCC(C(=O)N[C@@H](Cc3ccc(NC(=O)c4c(Cl)cccc4Cl)cc3)C(=O)O)C2)c1 (stereo partly drawn) [Example 205]
5,≥ 1000,O=C(O)c1ccc(NC(=O)N2CCCC(C(=O)N[C@@H](Cc3ccc(NC(=O)c4c(Cl)cccc4Cl)cc3)C(=O)O)C2)cc1 (stereo partly drawn) [Example 208]
6,≥ 1000,O=C(O)CCC(=O)N1CCC(C(=O)N[C@@H](Cc2ccc(NC(=O)c3c(Cl)cccc3Cl)cc2)C(=O)O)CC1 [Example 209]
7,≥ 1000,O=C(O)CC1(CC(=O)N2CCC(C(=O)N[C@@H](Cc3ccc(NC(=O)c4c(Cl)cccc4Cl)cc3)C(=O)O)CC2)CCCC1 [Example 210]
8,≥ 1000,CC(C)(CC(=O)O)CC(=O)N1CCC(C(=O)N[C@@H](Cc2ccc(NC(=O)c3c(Cl)cccc3Cl)cc2)C(=O)O)CC1 [Example 211]
9,≥ 1000,O=C(O)/C=C\C(=O)N1CCC(C(=O)N[C@@H](Cc2ccc(NC(=O)c3c(Cl)cccc3Cl)cc2)C(=O)O)CC1 [Example 212]
10,≥ 1000,O=C(O)/C=C/C(=O)N1CCC(C(=O)N[C@@H](Cc2ccc(NC(=O)c3c(Cl)cccc3Cl)cc2)C(=O)O)CC1 [Example 213]
11,≥ 1000,COCCC(=O)N1CCC(C(=O)N[C@@H](Cc2ccc(NC(=O)c3c(Cl)cccc3Cl)cc2)C(=O)O)CC1 [Example 214]
12,≥ 1000,O=C(Nc1ccc(C[C@H](NC(=O)C2CCN(C(=O)C3CCCC(C(=O)O)C3)CC2)C(=O)O)cc1)c1c(Cl)cccc1Cl (stereo partly drawn) [Example 215]
13,≥ 1000,O=C(O)CNC(=O)N1CCC(C(=O)N[C@@H](Cc2ccc(NC(=O)c3c(Cl)cccc3Cl)cc2)C(=O)O)CC1 [Example 217]
14,≥ 1000,COc1ccc(C(=O)N2CCC(C(=O)N[C@@H](Cc3ccc(NC(=O)c4c(Cl)cccc4Cl)cc3)C(=O)O)CC2)cc1OC [Example 218]
15,≥ 1000,O=C(O)c1ccccc1C(=O)N1CCC(C(=O)N[C@@H](Cc2ccc(NC(=O)c3c(Cl)cccc3Cl)cc2)C(=O)O)CC1 [Example 219]
16,≥ 1000,O=C(O)c1ccc2cc(C(=O)N3CCC(C(=O)N[C@@H](Cc4ccc(NC(=O)c5c(Cl)cccc5Cl)cc4)C(=O)O)CC3)ccc2c1 [Example 221]

# Molecular target: T2, α4β1 integrin (Jurkat cell adhesion to immobilized CS-1 derived peptide CLHPGEILDVPST) (Homo sapiens, UniProt P05556+P13612)
# T2 construct: 100 μl of Jurkat cells (2.5×10^6 cells/ml) in DMEM plus BSA; host or cells: Jurkat T-cell line
# T2 sequence (P13612 34-1032): as the sequence (P13612 34-1032) above
# T2 sequence (P05556 21-798): as the sequence (P05556 21-798) above
# Experiment: Jurkat-CS-1 assay
# Type: cell-based
# Conditions: Jurkat cells on CS-1 peptide coated plates; read-out: JK/CS-1 (Jurkat CS-1 Assay IC50 value range)
# Procedure: The CS-1 derived peptide, CLHPGEILDVPST, and the scrambled control peptide, CLHGPIELVSDPT, were synthesized on a Beckman 990 synthesizer using t-Boc methodology. The peptides were immobilized onto microtiter plates using the heterobifunctional crosslinker 3-(2-pyridyldithio)propionic acid N-hydroxysuccinimide ester (SPDP) as reported by Pierschbacher et al., Proc. Natl. Acad. USA, 80:1224-1227 (1983). Microtiter plates were coated with 20 μg/ml HSA for 2 hr. at room temperature, washed once with PBS and derivatized with 10 μg/ml SPDP for 1 hr. After washing, 100 μl of a 100 μg/ml cysteine containing peptide solution which had been recently dissolved was added to the wells and allowed to crosslink to the plates overnight at 4° C. Unbound peptide was removed from plates by washing with PBS. To block non-reacted sites, the plates are coated with 100 μl of a 2.5 mg/ml BSA solution in PBS for 1 hr. at 37° C. 100 μl of Jurkat cells (2.5×10^6 cells/ml) in DMEM plus BSA (2.5 mg/ml) was mixed with an appropriate concentration of the compound to be tested and the mixture was added to peptide coated dishes and incubated for 1 hr. at 37° C. Generally 100, 20, 5 and 1.25 μM concentrations of the compound were tested.
# Following this incubation the plates were washed once with PBS and the attached cells were fixed with 3% paraformaldehyde in PBS and stained with 0.5% toluidine blue in 3.7% formaldehyde. The cells were stained overnight at room temperature and the optical density at 590 nm of toluidine blue stained cells was determined using a vertical pathway spectrophotometer to quantitate attachment (VMAX Kinetic Microplate Reader, Molecular Devices, Menlo Park, Calif.). This procedure is a modification of a previously published method (Cardarelli et al, J. Biol. Chem., 269:18668-18673 (1994) and Cardarelli et al, Proc. Natl. Acad. Sci. USA, 83:2647-2651 (1986)).
row,IC50 [nM],SMILES
1,50 to 750,"O=C(Nc1ccc(C[C@H](NC(=O)C2CSC3COC(=O)N32)C(=O)O)cc1)c1c(Cl)cccc1Cl (single isomer, unassigned) [Example 281, 4-[(2,6-Dichlorobenzoyl)amino]-N-[(tetrahydro-5-oxo-5H-thiazolo[3,2-c]oxazol-3-yl)carbonyl]-L-phenylalanine]"
2,≤ 50,"O=C(Nc1ccc(C[C@H](NC(=O)C2CSC3COC(=O)N32)C(=O)O)cc1)c1c(Cl)cccc1Cl (single isomer, unassigned) [Example 282, 4-[(2,6-Dichlorobenzoyl)amino]-N-[(tetrahydro-5-oxo-5H-thiazolo[3,2-c]oxazol-3-yl)carbonyl]-L-phenylalanine]"
3,≤ 50,"CCOC(=O)N1CSCC1C(=O)N[C@@H](Cc1ccc(NC(=O)c2c(Cl)cccc2Cl)nc1)C(=O)O (stereo in doubt) [Example 290, [S-(R*,R*)]-4-[[[1-Carboxy-2-[2-[(2,6-dichlorobenzoyl)amino]-5-pyridinyl]ethyl]amino]carbonyl]-3-thiazolidinecarboxylic Acid Ethyl Ester]"
4,≥ 750,"CCOC(=O)N1CSC[C@@H]1C(=O)N[C@@H](Cc1ccc(NC(=O)c2ccccc2)cc1)C(=O)O [Example 268, (4S)-4-[[[(1S)-1-Carboxy-2-[4-[(benzoyl)amino]phenyl]ethyl]amino]carbonyl]-3-thiazolidinecarboxylic Acid 3-Ethyl Ester]"
5,≥ 750,"CCOC(=O)N1CSC[C@@H]1C(=O)N[C@@H](Cc1ccc(NC(C)=O)cc1)C(=O)O [Example 269, (4S)-4-[[[(1S)-1-Carboxy-2-[4-[(acetyl)amino]phenyl]ethyl]amino]carbonyl]-3-thiazolidinecarboxylic Acid 3-Ethyl Ester]"
6,50 to 750,"CCOC(=O)N1CSC[C@@H]1C(=O)N[C@@H](Cc1ccc(NC(=O)CCc2ccccc2)cc1)C(=O)O [Example 270, (4S)-4-[[[(1S)-1-Carboxy-2-[4-[(3-phenylpropanoyl)amino]phenyl]ethyl]amino]carbonyl]-3-thiazolidinecarboxylic Acid 3-Ethyl ester]"
7,50 to 750,"CCOC(=O)N1CSC[C@@H]1C(=O)N[C@@H](Cc1ccc(NC(=O)c2cccnc2)cc1)C(=O)O [Example 271, (4S)-4-[[[(1S)-1-Carboxy-2-[4-[(3-pyridinylcarbonyl)amino]phenyl]ethyl]amino]carbonyl]-3-thiazolidinecarboxylic Acid 3-Ethyl Ester]"
8,50 to 750,"CCOC(=O)N1CSC[C@@H]1C(=O)N[C@@H](Cc1ccc(NC(=O)c2ccc(OC)cc2)cc1)C(=O)O [Example 272, (4S)-4-[[[(1S)-1-Carboxy-2-[4-[(4-methoxybenzoyl)amino]phenyl]ethyl]amino]carbonyl]-3-thiazolidinecarboxylic Acid 3-Ethyl Ester]"
9,≥ 750,"CCOC(=O)N1CSC[C@@H]1C(=O)N[C@@H](Cc1ccc(NC(=O)c2ccc(C)cc2)cc1)C(=O)O [Example 273, (4S)-4-[[[(1S)-1-Carboxy-2-[4-[(4-methylbenzoyl)amino]phenyl]ethyl]amino]carbonyl]-3-thiazolidinecarboxylic Acid 3-Ethyl Ester]"
10,50 to 750,"CCOC(=O)N1CSC[C@@H]1C(=O)N[C@@H](Cc1ccc(NC(=O)c2ccccc2C(F)(F)F)cc1)C(=O)O [Example 274, (4S)-4-[[[(1S)-1-Carboxy-2-[4-[[2-(trifluoromethyl)benzoyl]amino]phenyl]ethyl]amino]carbonyl]-3-thiazolidinecarboxylic Acid 3-Ethyl Ester]"
11,≤ 50,"CCOC(=O)N1CSC[C@@H]1C(=O)N[C@@H](Cc1ccc(NC(=O)c2c(Cl)cc(Cl)cc2Cl)cc1)C(=O)O [Example 275, (4S)-4-[[[(1S)-1-Carboxy-2-[4-[(2,4,6-trichlorobenzoyl)amino]phenyl]ethyl]amino]-carbonyl]-3-thiazolidinecarboxylic Acid 3-Ethyl Ester]"

# — US6685617B1, “Inhibitors of α4β1 mediated cell adhesion” (Pharmacia & Upjohn Company, priority 1998, dated 2004)
